Biological target: T1, alpha-ketoglutarate dehydrogenase (kGDH) (Mus musculus, UniProt Q60597)
T1 construct: from tissue; host or cells: mouse brain, blood, tumor and other organs (crude lysates)
T1 sequence (Q60597 41-1023): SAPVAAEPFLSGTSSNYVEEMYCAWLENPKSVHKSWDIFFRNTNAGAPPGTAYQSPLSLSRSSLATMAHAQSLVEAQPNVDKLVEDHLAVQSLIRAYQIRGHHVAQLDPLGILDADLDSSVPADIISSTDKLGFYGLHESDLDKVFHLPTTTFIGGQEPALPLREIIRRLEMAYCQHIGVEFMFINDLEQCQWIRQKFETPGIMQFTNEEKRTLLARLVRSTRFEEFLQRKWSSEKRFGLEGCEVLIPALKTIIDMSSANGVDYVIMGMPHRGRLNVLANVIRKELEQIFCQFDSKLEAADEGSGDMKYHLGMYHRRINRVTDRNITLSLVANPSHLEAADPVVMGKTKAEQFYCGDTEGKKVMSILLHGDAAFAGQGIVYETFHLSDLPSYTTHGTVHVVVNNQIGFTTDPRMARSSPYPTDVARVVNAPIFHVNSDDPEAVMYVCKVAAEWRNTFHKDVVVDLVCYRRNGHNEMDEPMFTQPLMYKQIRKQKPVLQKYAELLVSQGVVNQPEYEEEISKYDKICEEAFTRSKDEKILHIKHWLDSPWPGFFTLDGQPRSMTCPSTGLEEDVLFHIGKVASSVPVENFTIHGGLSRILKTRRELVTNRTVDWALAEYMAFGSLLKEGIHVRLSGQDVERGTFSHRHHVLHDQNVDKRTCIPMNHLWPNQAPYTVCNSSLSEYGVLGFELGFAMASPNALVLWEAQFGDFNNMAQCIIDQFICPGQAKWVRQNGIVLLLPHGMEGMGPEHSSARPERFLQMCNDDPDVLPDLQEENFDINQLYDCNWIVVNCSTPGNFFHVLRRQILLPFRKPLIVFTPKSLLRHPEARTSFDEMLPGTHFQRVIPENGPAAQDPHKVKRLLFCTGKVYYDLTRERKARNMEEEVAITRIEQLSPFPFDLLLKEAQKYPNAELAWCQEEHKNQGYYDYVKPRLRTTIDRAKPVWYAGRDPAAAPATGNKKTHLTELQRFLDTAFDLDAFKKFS
T1 sequence (Q9D2G2 69-454 partner): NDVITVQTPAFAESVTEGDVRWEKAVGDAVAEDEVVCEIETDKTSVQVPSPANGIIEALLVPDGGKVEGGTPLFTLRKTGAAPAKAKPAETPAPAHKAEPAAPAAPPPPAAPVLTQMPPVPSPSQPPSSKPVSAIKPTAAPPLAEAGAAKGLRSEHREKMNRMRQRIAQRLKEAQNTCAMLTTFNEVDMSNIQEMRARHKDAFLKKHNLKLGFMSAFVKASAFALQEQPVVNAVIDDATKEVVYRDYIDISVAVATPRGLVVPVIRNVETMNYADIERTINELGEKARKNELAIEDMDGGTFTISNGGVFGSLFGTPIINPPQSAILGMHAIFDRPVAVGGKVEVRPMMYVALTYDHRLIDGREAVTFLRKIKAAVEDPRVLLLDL
T1 sequence (O08749 36-509 partner): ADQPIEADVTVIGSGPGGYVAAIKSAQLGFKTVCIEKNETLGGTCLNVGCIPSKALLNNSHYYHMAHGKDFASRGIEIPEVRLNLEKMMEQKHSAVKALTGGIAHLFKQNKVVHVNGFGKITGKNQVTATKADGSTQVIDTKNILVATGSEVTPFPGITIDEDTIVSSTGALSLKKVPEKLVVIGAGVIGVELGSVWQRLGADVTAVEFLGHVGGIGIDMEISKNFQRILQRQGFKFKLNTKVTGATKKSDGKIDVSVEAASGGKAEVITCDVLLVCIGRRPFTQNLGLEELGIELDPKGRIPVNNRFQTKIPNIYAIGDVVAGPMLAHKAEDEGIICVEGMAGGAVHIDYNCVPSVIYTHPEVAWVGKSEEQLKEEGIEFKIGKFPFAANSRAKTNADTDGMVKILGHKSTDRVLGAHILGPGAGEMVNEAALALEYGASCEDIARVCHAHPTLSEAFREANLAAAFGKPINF
Experiment: alpha-ketoglutarate dehydrogenase activity in tissues of treated mice (fluorescence NADH assay)
Format: in vivo
Description: Blood samples from mice were taken (40 μl whole blood) serially or from mice sacrificed at the end of the experiment. Tissues, such as tumors (e.g. from implantation, xenograft, or arising spontaneously), brain, heart, kidney, liver, lung and spleen were taken and flash frozen in liquid nitrogen or on dry ice and stored in −80° C. until time of assay. Four volumes of cold lysis buffer (20 mM HEPES, pH 7.5, 1 mM EDTA, 0.2 g/l Triton X-100® and 0.2 g/L sodium deoxycholate, supplemented with 1 mM DTT and 1 mM PMSF just before use) were added to the blood, which was dissolved by vortexing. For blood that was frozen before coagulation, a clear lysate was obtained. If coagulation occurred, homogenization was used as described below for tissue. Tissues were suspended in lysis buffer in 10 ml round bottom tubes and homogenized with PowerGen 125® (Fisher Scientific) for four seconds at highest power while submerged in an ice-water bath. This step was repeated after a few seconds, as necessary. […]
Each reaction was monitored for the appearance of NADH (for transketolase, alpha-ketoglutarate dehydrogenase, pyruvate dehydrogenase) or NADPH (for glucose-6-phosphate dehydrogenase) at room temperature in a fluorescent plate reader with excitation at 340 nm and emission at 470 nm in kinetic mode. The velocity was determined by the slope of the initial linear range of increasing fluorescence, expressed in fluorescent units (FU)/min. The protein concentration in the lysate was determined using Bradford assays (BioRad) with BSA as a standard. […]
To investigate the amount of in vivo enzyme inhibition following treatment with an inhibitor, we administered a single dose of N3PT (100 mg/kg, intraperitoneally [i.p.]) and blood, spleen and brain samples were collected at various times from 0-120 hours after dosing. The enzymatic activities were determined as described in Example 1. TK activity was measured in blood and spleen. Because TK activity in the brain is below the detection limit of the assay, kGDH activity was measured in brain samples. […]

## Cc1ccc(C[n+]2csc(CCO)c2C)c(N)n1 [N3PT, 3-[(2-amino-6-methyl-3-pyridinyl)methyl]-5-(2-hydroxyethyl)-4-methyl thiazolium]
11 days i.p. twice per day, blood
  kGDH activity in blood: obliterated
After a single dose 100 mg/kg i.p., inferred from brain kGDH activity
  brain penetration: little or no significant brain penetration
Single dose 100 mg/kg i.p., 0-120 hours
  inhibition of brain kGDH activity: No significant inhibition
